Results from US20140051735A1, “USE OF N-PHENYLETHYLPYRAZOLE CARBOXAMIDE DERIVATIVES OR SALTS THEREOF FOR CONTROLLING POWDERY MILDEW PRIMARY INFECTIONS” (BAYER INTELLECTUAL PROPERTY GMBH, priority 2010, published 2014).

How the values were obtained:
[1] = test system: powdery mildew primary infections; experiment: controlling powdery mildew primary infections in perennial crops after application prior to the end of the previous vegetative cycle; type: in vivo; conditions: in the year of the application and also in the year after
powdery mildew species = conditions: on different crops; cited from earlier work

Row | SMILES | infection of new growing shoots and leaves [1] | number of early infected shoots [1] | efficacy against powdery mildew species (powdery mildew species)
1 | COC(c1ccc(Cl)cc1Cl)C(C)NC(=O)c1cn(C)nc1C(F)F (stereo not drawn) [3-difluoromethyl-1-methyl-1H-pyrazole-4-carboxylic acid [2-(2,4-dichlorophenyl)-2-methoxy-1-methyl-ethyl]-amide] | delayed | significantly reduced | –
2 | O=C(NCCc1ncc(C(F)(F)F)cc1Cl)c1ccccc1C(F)(F)F [fluopyram] | – | – | high level of efficacy
